The record followed here is article PMC12147761 (Journal of medicinal chemistry, 2025).

The target in one data set is T1, CDK12/CycK (Homo sapiens, UniProt Q9NYV4).
T1 construct: ICE Bioscience Inc. (assay service)
In words: ADP-Glo kinase assay, CDK12. Particulars: for IC50: ADP-Glo kinase assay, means from three independent experiments. In kind it is biochemical. As to the method: (§1) The kinase inhibitory activities of the compounds against CDK12 and CDK13 were preliminarily evaluated using the ADP-Glo kinase assay. Cell growth inhibition was determined in VCaP prostate cancer cells, which were characterized as being sensitive to CDK12/13 inhibition.[14]
All the kinase activity were performed using an ADP-Glo kinase assay by ICE Bioscience Inc. (Beijing, China). Kinome selectivity profiles (KINOMEscan profiling) and Kd detection were performed by Eurofins DiscoveryX Corporation (San Diego, CA, USA).
(In ADP-Glo the light output rises with the ADP produced.)

Another data set deals with T2, CDK13/CycK (Homo sapiens, UniProt Q14004).
T2 construct: ICE Bioscience Inc. (assay service)
In words: ADP-Glo kinase assay, CDK13. In kind it is biochemical. Particulars: means from three independent experiments. On the procedure:
as §1

For data set [1], the system named is VCaP prostate cancer cells. The experiment in a line: Cell proliferation assay (CellTiter-Glo), VCaP. In kind it is cell-based, human. Particulars: for IC50: Homo sapiens, VCaP, 120 h, cell growth inhibition, 5 days, CellTiter-Glo. On the procedure: as §1
Cells were seeded in 96-well plates and incubated at 37 °C and 5% CO2. After overnight incubation, serial dilutions of tested compounds were added to the plate. The assay was tested with Cell Titer-Glo (Promega) after 5 days. The luminescence signal was detected by the Infinite M1000 Pro plate reader (Tecan), and the IC50 values were calculated by GraphPad Prism 10.

The nature of data set [2]: Permeability and efflux ratio in Caco-2 cells. Particulars: human. The data set is classed as in vitro ADME. In general terms: Passage across Caco-2 layers is used to estimate intestinal permeability.
Data set [3] concerns VCaP cells. In words: Cell apoptosis assay by flow cytometry. In kind it is cell-based, human. Conditions: YJZ5118 at 100 nM. On the procedure:
Cells were seeded in six-well plates and incubated for 24 h at 37 °C and 5% CO2. Cells were then treated with the indicated concentrations of the tested compounds for 48 h. The treated cells then were collected, centrifuged and washed twice by cold PBS. […] Cell samples were analyzed with flow cytometry (SH800S cell sorter, Sony Biotechnology).

Data set [4] relates to VCaP cells. The experiment in a line: Washout experiment, cell growth. In kind it is cell-based, human. Conditions: VCaP cells treated 6 h, compound removed, 5 days in compound-free media. As to the method:
The previously reported reversible inhibitor 10 was included for comparison. VCaP cells were treated with the compounds for 6 h, after which the compounds were removed, and the cells were cultured in compound-free media for 5 days.

The subject of the next data set is VCaP CRPC xenograft. In words: In vivo efficacy, VCaP CRPC mouse model. Conditions: YJZ5118 i.p., q.d., uprosertib p.o., 5x/week, 27 days, compared to vehicle. On the set-up: species or system mice. As to the method: All the animal experiments were performed under an approved animal protocol (Protocol ID: PRO00010006, PI, Arul Chinnaiyan) by the Institutional Animal Care & Use Committee of the University of Michigan. Six- to eight-week-old NSG (Jackson Laboratory) or CB17SCID female (Charles River Laboratory) mice were in a regular SPF housing room prior to cell injection. Briefly, 5 ×10^6 cells of VCaP CRPC were injected […] of NSG or CB17SCID mice, respectively. After tumor size reached approximately 200–400 mm^3, animals were subjected to drug treatment. […] Vehicle consisted of 20% PEG400, 6% Cremophor EL, and 74% PBS solution. Tumors were collected at the end of the experiment for Western blot analysis.

Another data set deals with 468 kinases. The experiment in a line: KINOMEscan kinase selectivity profiling. Particulars: 1 μM; 403 non-mutant kinases. In kind it is binding. As to the method: Figure S1. The results of selectivity profiling study of compound 14h. (A) Chemical structure and the K d values of compound 14h against CDK12/13, and the KinomeScan kinase selectivity proﬁles of compound 14h at 1 μM against 468 kinases; (B) KinomeScan profiling results of compound 14h against CDK family members.
(1 picture or pasted object on this page, not shown here)

The nature of data set [5]: Pharmacokinetics study in mice. In kind it is in vivo, ICR mice. Conditions: both sexes, ICR, mouse, plasma.

T1 sequence (Q9NYV4 whole entry): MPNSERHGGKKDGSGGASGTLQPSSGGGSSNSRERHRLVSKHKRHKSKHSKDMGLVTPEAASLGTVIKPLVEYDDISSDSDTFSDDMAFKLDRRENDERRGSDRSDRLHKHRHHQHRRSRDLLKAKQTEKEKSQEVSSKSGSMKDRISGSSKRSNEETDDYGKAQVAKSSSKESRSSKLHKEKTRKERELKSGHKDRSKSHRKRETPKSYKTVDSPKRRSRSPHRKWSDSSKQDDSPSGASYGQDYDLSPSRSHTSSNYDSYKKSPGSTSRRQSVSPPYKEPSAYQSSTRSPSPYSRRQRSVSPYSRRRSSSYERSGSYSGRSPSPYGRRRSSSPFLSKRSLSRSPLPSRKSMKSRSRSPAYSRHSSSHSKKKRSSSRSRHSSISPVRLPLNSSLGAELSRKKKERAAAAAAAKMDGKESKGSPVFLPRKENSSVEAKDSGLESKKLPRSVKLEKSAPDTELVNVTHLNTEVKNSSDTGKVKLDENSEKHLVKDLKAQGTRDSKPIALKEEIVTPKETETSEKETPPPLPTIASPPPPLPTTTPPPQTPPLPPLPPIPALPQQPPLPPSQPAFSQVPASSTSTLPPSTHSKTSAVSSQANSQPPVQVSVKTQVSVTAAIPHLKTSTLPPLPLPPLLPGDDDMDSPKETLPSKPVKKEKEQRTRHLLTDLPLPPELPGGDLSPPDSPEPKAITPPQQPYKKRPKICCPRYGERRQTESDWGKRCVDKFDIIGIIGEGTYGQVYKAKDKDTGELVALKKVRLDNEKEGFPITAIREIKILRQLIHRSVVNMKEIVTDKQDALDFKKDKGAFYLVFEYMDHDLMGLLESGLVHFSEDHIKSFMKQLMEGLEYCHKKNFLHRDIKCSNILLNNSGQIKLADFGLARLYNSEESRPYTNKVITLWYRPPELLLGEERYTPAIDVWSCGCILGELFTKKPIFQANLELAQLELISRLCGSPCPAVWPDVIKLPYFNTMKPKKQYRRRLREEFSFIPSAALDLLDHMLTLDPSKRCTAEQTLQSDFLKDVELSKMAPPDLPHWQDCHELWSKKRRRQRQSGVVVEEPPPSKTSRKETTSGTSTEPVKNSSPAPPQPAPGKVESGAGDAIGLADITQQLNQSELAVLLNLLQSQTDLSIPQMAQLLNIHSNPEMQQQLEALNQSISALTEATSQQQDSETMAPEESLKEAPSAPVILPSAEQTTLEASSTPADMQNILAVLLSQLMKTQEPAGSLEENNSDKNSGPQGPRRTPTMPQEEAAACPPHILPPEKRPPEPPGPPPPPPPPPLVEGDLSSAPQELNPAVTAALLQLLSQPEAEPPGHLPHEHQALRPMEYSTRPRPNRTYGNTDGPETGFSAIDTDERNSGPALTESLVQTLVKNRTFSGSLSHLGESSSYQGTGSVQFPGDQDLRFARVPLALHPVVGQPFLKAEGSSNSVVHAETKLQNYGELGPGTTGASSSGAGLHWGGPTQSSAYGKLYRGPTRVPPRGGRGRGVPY
T1 sequence (O75909 whole entry partner): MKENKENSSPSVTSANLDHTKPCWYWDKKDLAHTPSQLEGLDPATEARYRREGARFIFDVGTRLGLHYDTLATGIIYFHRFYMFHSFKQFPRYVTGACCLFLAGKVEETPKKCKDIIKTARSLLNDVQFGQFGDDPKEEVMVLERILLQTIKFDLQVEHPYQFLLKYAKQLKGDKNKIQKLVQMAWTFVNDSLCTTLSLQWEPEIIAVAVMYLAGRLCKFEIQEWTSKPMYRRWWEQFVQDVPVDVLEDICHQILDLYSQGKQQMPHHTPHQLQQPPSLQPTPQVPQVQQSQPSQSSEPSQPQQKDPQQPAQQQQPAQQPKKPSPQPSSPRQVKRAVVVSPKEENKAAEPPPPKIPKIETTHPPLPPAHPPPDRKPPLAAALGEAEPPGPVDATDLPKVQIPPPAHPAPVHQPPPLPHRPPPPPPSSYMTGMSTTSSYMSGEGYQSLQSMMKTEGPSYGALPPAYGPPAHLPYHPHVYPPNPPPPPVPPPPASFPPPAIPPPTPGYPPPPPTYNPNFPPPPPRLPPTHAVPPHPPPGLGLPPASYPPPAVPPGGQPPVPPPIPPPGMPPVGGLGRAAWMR
T2 sequence (Q14004 whole entry): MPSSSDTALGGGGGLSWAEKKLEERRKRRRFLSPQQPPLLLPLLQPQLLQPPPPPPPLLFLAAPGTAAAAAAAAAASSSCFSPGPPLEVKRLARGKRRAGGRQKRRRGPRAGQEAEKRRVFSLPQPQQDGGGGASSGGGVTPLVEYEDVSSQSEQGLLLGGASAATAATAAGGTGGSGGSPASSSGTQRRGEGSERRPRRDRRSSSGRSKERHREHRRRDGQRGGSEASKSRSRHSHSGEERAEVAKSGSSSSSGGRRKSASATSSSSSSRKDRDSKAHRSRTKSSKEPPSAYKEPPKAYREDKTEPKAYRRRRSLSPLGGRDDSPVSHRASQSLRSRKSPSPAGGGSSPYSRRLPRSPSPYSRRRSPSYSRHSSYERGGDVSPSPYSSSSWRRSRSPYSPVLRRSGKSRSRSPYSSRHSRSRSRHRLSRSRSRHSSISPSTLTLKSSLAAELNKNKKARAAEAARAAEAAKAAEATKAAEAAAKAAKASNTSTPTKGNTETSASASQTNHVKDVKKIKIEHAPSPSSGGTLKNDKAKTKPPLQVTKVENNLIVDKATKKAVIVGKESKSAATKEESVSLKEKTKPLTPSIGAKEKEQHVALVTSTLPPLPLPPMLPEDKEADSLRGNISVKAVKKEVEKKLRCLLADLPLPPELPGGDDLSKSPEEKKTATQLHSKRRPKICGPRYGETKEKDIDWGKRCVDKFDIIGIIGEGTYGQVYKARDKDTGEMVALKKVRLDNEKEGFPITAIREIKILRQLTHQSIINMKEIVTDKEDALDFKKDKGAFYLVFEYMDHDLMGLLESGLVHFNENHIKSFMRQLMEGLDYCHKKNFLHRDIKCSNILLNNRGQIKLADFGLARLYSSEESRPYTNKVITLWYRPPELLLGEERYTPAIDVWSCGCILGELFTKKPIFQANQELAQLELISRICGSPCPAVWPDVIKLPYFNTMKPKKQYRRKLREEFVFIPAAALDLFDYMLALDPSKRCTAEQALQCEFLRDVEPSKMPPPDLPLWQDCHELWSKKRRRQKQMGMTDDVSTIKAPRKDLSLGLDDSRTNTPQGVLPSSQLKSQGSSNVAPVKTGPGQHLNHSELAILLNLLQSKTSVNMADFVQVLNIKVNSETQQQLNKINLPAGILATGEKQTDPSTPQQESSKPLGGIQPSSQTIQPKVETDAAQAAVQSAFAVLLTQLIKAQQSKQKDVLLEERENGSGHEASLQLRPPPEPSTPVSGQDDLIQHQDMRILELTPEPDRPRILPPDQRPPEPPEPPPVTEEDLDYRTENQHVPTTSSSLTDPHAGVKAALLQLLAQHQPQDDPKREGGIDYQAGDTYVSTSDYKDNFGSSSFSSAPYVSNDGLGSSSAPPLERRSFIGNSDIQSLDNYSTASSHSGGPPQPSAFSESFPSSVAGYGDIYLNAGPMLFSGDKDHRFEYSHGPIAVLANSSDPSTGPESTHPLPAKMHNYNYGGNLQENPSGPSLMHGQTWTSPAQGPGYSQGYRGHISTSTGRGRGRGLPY
T2 sequence (O75909 whole entry partner): as the sequence (O75909 whole entry partner) above

`C=CC(=O)Nc1cc(N(C(=O)NCc2ccccc2)[C@H]2CC[C@H](Nc3ccc(C#N)cn3)CC2)ccc1-c1ccc(=O)n(C)c1` [Compound 14a, N-(5-(3-benzyl-1-((1r,4r)-4-((5-cyanopyridin-2-yl)amino)cyclohexyl)ureido)-2-(1-methyl-6-oxo-1,6-dihydropyridin-3-yl)phenyl)acrylamide] came in with an IC50 against CDK12/CycK of 37.9 nM. In addition, at CDK13/CycK, the IC50 was determined as 14.9 nM. Besides, in [1], the “antiproliferative potency in VCaP cells, fold more potent than lead compound 2” value is recorded as “approximately 6 fold” and half-maximal inhibition (IC50) required 330 nM. Also, in [2], the apical-to-basolateral permeability (Papp A→B) came to 0.07 ×10⁻⁶ cm/s, the basolateral-to-apical permeability (Papp B→A) stood at 5.25 ×10⁻⁶ cm/s and the efflux ratio is 72.6.

Turning to `C=CC(=O)Nc1cc(N(C(=O)NCc2ccccc2)[C@H]2CC[C@H](Nc3ccc(C#N)cn3)CC2)ccc1N1CCC(N(C)C)C1` (some centres unmarked) [Compound 14e, N-(5-(3-benzyl-1-((1r,4r)-4-((5-cyanopyridin-2-yl)amino)cyclohexyl)ureido)-2-(3-(dimethylamino)pyrrolidin-1-yl)phenyl)acrylamide], the IC50 came to 568 nM against CDK12/CycK, 177 nM against CDK13/CycK and 57.6 nM in [1].

`C=CC(=O)Nc1cc(N(C(=O)NCc2ccccc2)[C@H]2CC[C@H](Nc3ccc(C#N)cn3)CC2)ccc1N1CC(N(C)C)C1` [Compound 14d, N-(5-(3-benzyl-1-((1r,4r)-4-((5-cyanopyridin-2-yl)amino)cyclohexyl)ureido)-2-(3-(dimethylamino)azetidin-1-yl)phenyl)acrylamide]: the IC50 against CDK12/CycK was found to be 151 nM; against CDK13/CycK it was 73.7 nM; in data set [1], 133 nM.

For the molecule `C=CC(=O)Nc1cc(N(C(=O)NCc2ccccc2)[C@H]2CC[C@H](Nc3ccc(C#N)cn3)CC2)ccc1N1CCN(C(C)=O)CC1` [Compound 14i, N-(2-(4-acetylpiperazin-1-yl)-5-(3-benzyl-1-((1r,4r)-4-((5-cyanopyridin-2-yl)amino)cyclohexyl)ureido)phenyl)acrylamide], the half-maximal inhibitory concentration (IC50) is 331 nM against CDK12/CycK, 164 nM against CDK13/CycK and 45.5 nM in data set [1]. Moreover, the “fold weaker potency against the kinases compared to 14f” value on CDK12/CycK (CDK12 and CDK13) is reported as 2- to 3 fold.

For `C=CC(=O)Nc1cc(N(C(=O)NCc2ccccc2)[C@H]2CC[C@H](Nc3ccc(C#N)cn3)CC2)ccc1N(C)CCN(C)C` [Compound 14c, N-(5-(3-benzyl-1-((1r,4r)-4-((5-cyanopyridin-2-yl)amino)cyclohexyl)ureido)-2-((2-(dimethylamino)ethyl)(methyl)amino)phenyl)acrylamide], the IC50 came out at 191 nM on CDK12/CycK, 79.3 nM against CDK13/CycK and 44.4 nM in data set [1]. Also, in data set [1], the “antiproliferative potency in VCaP cells, fold more potent than lead compound 2” value was “approximately 44 fold”.

Regarding `CN(C)C/C=C/C(=O)Nc1ccc(C(=O)N2CCC[C@@H](Nc3ncc(Cl)c(-c4c[nH]c5ccccc45)n3)C2)cc1` [Compound 3, THZ531, reference compound], the values for the half-inhibitory concentration (IC50) (on CDK12/CycK; against CDK13/CycK; in data set [1]) were 77.4 nM, 63.3 nM and 33.5 nM, respectively. The same molecule came in with an apoptosis rate with VCaP cells [3] of 24.9%.

On to `C=CC(=O)Nc1cc(N(C(=O)NCc2ccccc2)[C@H]2CC[C@H](Nc3ccc(C#N)cn3)CC2)ccc1N1CCOCC1` [Compound 14j, N-(5-(3-benzyl-1-((1r,4r)-4-((5-cyanopyridin-2-yl)amino)cyclohexyl)ureido)-2-morpholinophenyl)acrylamide], for which the concentration for half-maximal inhibition (IC50) at CDK12/CycK was determined as 55 nM; against CDK13/CycK, 12.8 nM; in data set [1], 59.9 nM.

As for `C=CC(=O)Nc1cccc(N(C(=O)NCc2ccccc2)[C@H]2CC[C@H](Nc3ccc(C#N)cn3)CC2)c1` [Compound 14b, N-(3-(3-benzyl-1-((1r,4r)-4-((5-cyanopyridin-2-yl)amino)cyclohexyl)ureido)phenyl)acrylamide], the IC50 against CDK12/CycK was 506 nM. For the same molecule, the “reduction in kinase inhibitory potency compared with 14a” value at CDK12/CycK (CDK12 and CDK13) is on record as 7- to 13 fold. The same molecule had an IC50 at CDK13/CycK of 99 nM. In data set [1], the “fold more potency than 14a in the growth inhibition assay against VCaP cells” value worked out at 3.4 fold and the midpoint of inhibition, the IC50, lay at 96.2 nM. In addition, in data set [2], the Papp A→B was found to be 0.91 ×10⁻⁶ cm/s, the Papp B→A amounted to 13.7 ×10⁻⁶ cm/s and the efflux ratio worked out at 15.

With `C=CC(=O)Nc1cc(N(C(=O)NCc2ccccc2)[C@H]2CC[C@H](Nc3ccc(C#N)cn3)CC2)ccc1N1CCN(C)CC1` [Compound 14f, N-(5-(3-benzyl-1-((1r,4r)-4-((5-cyanopyridin-2-yl)amino)cyclohexyl)ureido)-2-(4-methylpiperazin-1-yl)phenyl)acrylamide], the results for the IC50 (at CDK12/CycK; on CDK13/CycK; in data set [1]) were 130 nM, 66.8 nM and 39.9 nM, respectively.

Consider `Cn1cc(-n2cnc3c(NCc4nc5cc(Cl)c(Cl)cc5[nH]4)nc(N4CCOCC4)nc32)cn1` [Compound 10, SR-4835, reference compound], for which the “cell growth inhibitory effect after washout” value with VCaP cells [4] was “nearly completely lost following washout”.

Regarding `Cn1ncc(Cl)c1-c1cc(C(=O)N[C@H](CN)Cc2ccc(F)c(F)c2)oc1Cl` [Uprosertib, reference compound], the tumor growth result in the data set on VCaP CRPC xenograft is recorded as “significant reduction in tumor growth”.

`C=CC(=O)Nc1cc(N(C(=O)NCc2ccccc2)[C@H]2CC[C@H](Nc3ccc(C#N)cn3)CC2)ccc1N1C[C@H]2C[C@@H]1CN2C` [Compound 14g, N-(5-(3-benzyl-1-((1r,4R)-4-((5-cyanopyridin-2-yl)amino)cyclohexyl)ureido)-2-((1R,4R)-5-methyl-2,5-diazabicyclo[2.2.1]heptan-2-yl)phenyl)acrylamide]: the IC50 against CDK12/CycK came to 209 nM; against CDK13/CycK, 83.9 nM; in data set [1], 76.3 nM.

As for `C=CC(=O)Nc1cc(N(C(=O)NCc2ccccc2)[C@H]2CC[C@H](Nc3ccc(C#N)cn3)CC2)ccc1N1CCN(C)[C@@H](C)C1` [Compound 14h, N-(5-(3-benzyl-1-((1r,4S)-4-((5-cyanopyridin-2-yl)amino)cyclohexyl)ureido)-2-((S)-3,4-dimethylpiperazin-1-yl)phenyl)acrylamide], the IC50 at CDK12/CycK worked out at 33.1 nM. The IC50 against CDK13/CycK is 21.7 nM. The IC50 in data set [1] came to 4.3 nM. Moreover, in the data set on 468 kinases, the “Number of Hits, S (1)” value is listed as 0; the “Number of Hits, S (10)” value was found to be 2; the “Number of Hits, S (35)” value worked out at 6; the “Selectivity Score S (10)” value is 0.005. In addition, the “Selectivity Score S (35)” value in the data set on 468 kinases is listed as 0.015. In data set [5] (iv, i.v. 2 mg/kg), the AUC(0-t) was determined as 309 ng·h/mL, the concentration peaked (Cmax) at 658 ng/mL, the Tmax was 4.8 min and the clearance amounted to 108 mL/min/kg. In [5] (iv, i.v. 2 mg/kg), this molecule had a half-life of 21.6 min. Besides, the bioavailability in data set [5] (po, 10 mg/kg, p.o. 10 mg/kg, read-out: F (oral bioavailability)) was determined as 42.2%. For the same molecule, in data set [5] (po, p.o. 10 mg/kg), the AUC(0-t) amounted to 652 ng·h/mL, the highest level (Cmax) was 499 ng/mL, the Tmax turned out to be 30 min and the half-life was 37.2 min.

What is called IC50 is the concentration needed to halve the response being measured. In general, Papp A→B refers to the apparent permeability from the apical to the basolateral side of a cell layer. The Papp B→A is how fast a substance crosses the layer from the basolateral side. One may read the efflux ratio as a quotient of directional permeabilities that is used to spot active efflux. The term AUC(0-t) denotes the area under the concentration-time curve up to a stated or last time point. One may read the Cmax as the highest concentration seen after dosing. What is called Tmax is the time from dosing to the highest level. What is called clearance is the rate of elimination divided by the concentration. The half-life is the time needed for the level to fall by half in the phase considered. Higher therefore signals slow loss. As usually defined, the bioavailability is dose-corrected exposure relative to a reference, in per cent.
